Measured values from US7378274B2, “Regulatory nucleic acid for the ABC1 gene, molecules modifying its activity and therapeutic uses” (Aventis Pharma S.A., priority 2000, dated 2008).

Experiments:
[1] = system: human ABC1 promoter; experiment: Luciferase reporter under control of the -200 bp human ABC1 promoter (wild type or E-box mutant), transfected RAW 264.7 cells; type: cell-based; conditions: 24 hours, 10 μM 9CRA, 2 μg/ml 22(R)-HOch
Text: Plasmids containing mutant SP1, AP1, E-box, LXR and deleted E-box fragments were constructed by site-directed mutagenesis using the overlap PCR method and the PXP1 −995 to +120 bp construct (Previato et al., JBC, 1991, 266:18958-63) as template. The primers listed below were used to amplify −200 to +44 bp of the human ABC1 promoter. Upper-case letters represent wild-type sequence whereas lower-case letters represent mutant sequence.
S224-HindIII and 44-HindIII were the upstream and downstream primers used for overlap PCR. The Hind III sites are underlined. The resulting fragments which spanned −200 to +44 of the human ABC1 gene were ligated into the HindIII site of the PXP1 luciferase reporter plasmid (Nordeen et al., Biotechniques, 1988, 6:454-457). All constructs were confirmed by sequencing.
Murine macrophage RAW 264.7 cells and human embryonic kidney 293 cells (American Type Culture Collection, Rockville, Md.) were grown in Dulbecco's modified Eagle's medium (DMEM) with 10% fetal calf serum (FCS). Approximately 1.5×10^5 cells were plated in 12-well plates (Costar, Corning, N.Y.), grown to 50-70% confluency and cotransfected with 1.5 μg of the ABC1 promoter-luciferase plasmid and 0.5 μg of the β-galactosidase vector (pCMVβ;Clontech, Palo Alto, Calif.) by using the Superfectin Reagent Kit (Qiagen, Valencia, Calif.). […]

[2] = system: regulatory nucleic acid for the human ABC1 gene; experiment: Luciferase reporter under control of the -995 to +120 regulatory nucleic acid for the human ABC1 gene, transfected Hepa1-6 cells; type: cell-based
Text: The region of the regulatory acid for the human ABC1 gene which ranges from the nucleotide at position −-995 up to the nucleotide at position +120, with respect to the transcription start site, was amplified by the PCR technique, with the aid of the following pair of primers: • forward primer S995 (SEQ ID No. 12), of sequence 5′-TTGCCGTCGACTGTTTTGGGTAGTTT-3′; and • reverse primer +220R (SEQ ID No. 13), of sequence 5′-GCCCTGTCGACCGGCTCTGTTGGT-3′, • From human genomic DNA present in a BAC vector from a collection of human BAC vectors.
The DNA fragment amplified was digested with the restriction endonuclease Sal 1, and then inserted into the vector PXP1 described by Nordeen et al. (1988, BioTechniques, 6: 454-457), at the Sal 1 restriction site of this vector.
Cells of the Hepa1-6 line (ATCC, Rockville, Md., USA) were cultured in the medium E-MEM (Minimum Essential Medium with Earle's Salts), to which 10% (v/v) of fetal calf serum (BioWhittaker, Walkersville, Md.) was added.
Approximately 1.5×10^5 cells were distributed into each of the wells of a 12-well (2.5 cm) culture plate, and were cultured until approximately 50 to 70% confluence, and were then cotransformed with 1 μg of the plasmid Sal-Lucif and 0.5 μg of the control vector pBetagel (CloneTech Laboratories Inc., Palo Alto, Calif., USA) using the Superfectin Reagent Kit pack (QIAGEN Inc., Valencia, Calif., USA). Two hours after adding the DNA, the culture medium was removed, and replaced with complete AMEM (Minimum Essential Medium Eagle's Alpha Modification) medium. […]
Freshly thawed aliquot fractions were used to quantify the proteins, using the MicroBCA Kit pack (Pierce, Rockford, Ill., USA), as well as to quantify the luciferase and beta-galactosidase production, using, respectively, the Tropix Luciferase Assay Kit and Galacto-Light Plus Kit packs. […]

[3] = system: E-box in the human ABC1 gene promoter; experiment: Gel mobility shift assay of E-box (EB) probe with RAW cell nuclear extracts; type: binding; conditions: nuclear extracts of stimulated versus unstimulated RAW cells
Text: Three double-stranded human ABC1 promoter fragments (Fragment A spanning −171 to −71 bp; Fragment EB spanning −156 to −130 bp and Fragment EB spanning −156 to −130 bp) were end-labeled with […] using T4 polynucleotide kinase (Lofstrand, Gaithersburg Md.). Nuclear extracts were isolated from unstimulated RAW 264.7 cell and HepG2 cell as well as RAW 264.7 cells after stimulation with the same concentrations of cholesterol and 22(R)-Hch shown above (Paragon Bioservices Inc. Baltimore, Md.). One ng (10,000 cpm) of radiolabelled probe was added to 2.5 μg nuclear extract in 20 ul of a 20 mM TRIS gel shift buffer (pH 7.9) containing 60 mM KCl, 0.2 mM EDTA, 0.5 mM DTT, 0.25 mM PMS, 1.3 mM MgCl, 10% glycerol, 3% Ficoll and 3 μg of double-stranded poly (dldC) as described (Previato et al., J Biol Chem, 1991, 266:18958-18963) and incubated for 10 minutes on ice followed by 10 minutes at room temperature. The incubated mixture was loaded on a 6% polyacrylamide gel in 0.25×TBE buffer and electrophoresed at 100 V for 90 min followed by autoradiography. For competition assays, nuclear extracts were preincubated for 10 minutes on ice in a 20 μl reaction mixture in the presence or absence of a 100-200-fold excess of double-stranded DNA competitors for Sp1 (−173 to −155 bp), AP1 (−135 to −155 bp), LXR (−54 to −69 bp) and E-box (−158 to −136 bp) before addition of probe. […]

[4] = system: USF1 and USF2; experiment: Western analysis of USF1 and USF2 in RAW cell nuclear extracts; type: cell-based; conditions: RAW cells stimulated with cholesterol or oxysterols
Method: RAW cell nuclear extracts (35 μg protein per lane) from cells stimulated with cholesterol or 22-R-hydroxycholesterol were loaded onto NuPage Bis-Tris 4-12% gradient gels (Invitrogen, Carlsbad, Calif.) and run according to manufacturer's specifications. Proteins were transferred to Immobilon-P PVDF membranes (Millipore Corp, Bedford, Mass.). Antibodies (2 mg/ml stock) were from Santa Cruz Biotechnology, Inc. (Santa Cruz, Calif.) and were used according to manufacturer's specifications. Anti-USF1 C20X (catalog number sc-229X) antibody was used at a dilution of 1/600 and anti-USF2 antibodies C20X (catalog number sc862X) and N18X (catalog number sc861X) were used at a dilution of 1/1000.

For `CC1=C(/C=C/C(C)=C\C=C\C(C)=C\C(=O)O)C(C)(C)CCC1` [CRA, 9-cis-retinoic acid], which “Effect on ABC1 gene transcription (luciferase reporter)” value [1] is on record?
The value was “stimulatory effect”.

For `CC(C)CCC[C@@H](C)[C@H]1CC[C@H]2[C@@H]3CC=C4C[C@@H](O)CC[C@]4(C)[C@H]3CC[C@]12C` [cholesterol], which Luciferase activity ([2]; Hepa1-6 cells, in the presence of 50 μg/ml cholesterol, cells recovered 16 hours after medium change) is on record?
Its Luciferase activity is 500000 RLU.

What about the “Increase in the activity” value ([2]; in the presence versus absence of cholesterol) of the same compound?
Its value is 1.82.

What about the Normalized activity ([2]; luciferase normalized to β-galactosidase, in the presence of 50 μg/ml cholesterol) of the same compound?
Its Normalized activity is 13.25.

What about the “Gel shift banding patterns with EB probe” value [3] of the same compound?
Its value is “No differences”.

What about the “Expression of USF immunoreactive bands (43 and 44 KDa)” value [4] of the same compound?
Its value is “not altered”.

Which results are given for `CC(C)CC[C@@H](O)[C@@H](C)[C@H]1CC[C@H]2[C@@H]3CC=C4C[C@@H](O)CC[C@]4(C)[C@H]3CC[C@]12C` [oxysterols, 22-(R)-hydroxycholesterol]?
Gel shift banding patterns with EB probe [3]: No differences; Effect on ABC1 gene transcription (luciferase reporter) [1]: stimulatory effect; Expression of USF immunoreactive bands (43 and 44 KDa) [4]: not altered
